# Measurements reported in paper PMC9196953 (Drug development research, 1999).
# Tests used:
# human A2B receptors = target: T1, human A2B receptors (Homo sapiens, UniProt P29275); experiment: Binding at human A2B receptors expressed in HEK-293 cells vs [125I]-ABOPX; settings: read-out: Ki hA2B (converted)
# T1 construct: expressed in transfected cells; host or cells: HEK-293
# T1 sequence (P29275 1-332): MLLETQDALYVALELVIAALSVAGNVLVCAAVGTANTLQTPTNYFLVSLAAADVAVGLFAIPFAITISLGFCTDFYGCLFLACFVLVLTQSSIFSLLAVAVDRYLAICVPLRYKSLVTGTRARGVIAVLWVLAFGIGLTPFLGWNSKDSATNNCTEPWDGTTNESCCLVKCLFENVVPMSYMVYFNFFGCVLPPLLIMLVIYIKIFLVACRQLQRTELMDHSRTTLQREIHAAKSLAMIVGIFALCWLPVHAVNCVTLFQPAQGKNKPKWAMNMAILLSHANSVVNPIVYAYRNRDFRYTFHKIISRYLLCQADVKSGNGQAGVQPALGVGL
# Protocol: The human A2B receptor cDNA was subcloned into the expression plasmid pDoubleTrouble [[Robeva et al., 1996a]]. The plasmid was amplified in competent JM109 cells and plasmid DNA isolated using Wizard Megaprep columns (Promega Corp., Madison, WI).
# Transfected HEK cells were grown under 5% CO2/[…] humidified atmosphere at a temperature of 37°C. Colonies were selected by growth of cells in 0.6 mg/mL G418. Transfected cells were maintained in DMEM supplemented with Hams F12 nutrient mixture (1/1), 10% newborn calf serum, 2 mM glutamine, and containing 50 IU/mL penicillin, 50 μg/mL streptomycin, and 0.2 mg/mL Geneticin (G418, Boehringer Mannheim, Indianapolis, IN). Cells were cultured in 10 cm diameter round plates and subcultured when grown confluent (approximately after 72 h).
# Confluent monolayers of HEK-A2B cells were washed with PBS followed by ice-cold Buffer A (10 mM HEPES, 10 mM EDTA, pH 7.4) with protease inhibitors ([…] benzamidine, […], and […] of each aprotinin, pepstatin, and leupeptin). The cells were homogenized in a Polytron (Brinkmann) for 20 sec, centrifuged at 30,000g, and the pellets washed twice with buffer HE (10 mM HEPES, 1 mM EDTA, pH 7.4 with protease inhibitors). The final pellet was resuspended in buffer HE, supplemented with 10% sucrose and frozen in aliquots at −80°C. For binding assays, membranes were thawed and diluted 5–10-fold with HE to a final protein concentration of approximately 1 mg/mL. To determine protein concentrations, membranes, and bovine serum albumin standards were dissolved in 0.2% NaOH/0.01% SDS and protein determined using fluorescamine fluorescence [[Stowell et al., 1978]]. […] To prepare [^125I-]ABOPX, […] of 1 mM ABOPX in methanol/1 M NaOH (20:1) was added to […] of 100 mM phosphate buffer, pH 7.3. One or 2 mCi of Na^125I was added, followed by […] of 1 mg/mL chloramine-T in water. After incubating for 20 min at room temperature, 50 mL of 10 mg/mL Na-metabisulfite in water was added the quench the reaction. The reaction products were applied to a C18 HPLC column using 4 mM phosphate, pH 6.0/methanol. After 5 min in 35% methanol, the methanol concentration was ramped to 100% over 15 min. Unreacted ABOPX eluted in 11–12 min; [^125I-]ABOPX eluted at 18–19 min in a yield of 50–60% of the initial ^125I. In equilibrium binding assays the ratio of [^127I/^125I-]ABOPX was 10–20/1. […] The incubation time was 3 h at 21°C. […] Competition experiments were carried out using 0.6 nM ^125I-ABOPX. Membranes were filtered on Whatman GF/C filters using a Brandell cell harvester (Gaithersburg, MD) and washed three times over 15–20 sec with ice-cold buffer (10 mM Tris, 1 mM MgCl2, pH 7.4). Bmax and KD values were calculated by Marquardt’s nonlinear least squares interpolation for single site binding models [[Marquardt, 1963]]. Ki values for different compounds were derived from IC50 values as described previously [[Linden, 1982]]. Data from replicate experiments are tabulated as means ± SEM.
# (§1) At A2B receptors, two radioligand binding assays (Table 1) were used. Ki values of xanthine derivatives were determined in displacement of binding of the non-selective radioligands […], 8 (4-(2-[7-amino-2-{furyl}{1,2,4}triazolo{2,3-a}{1,3,5}tr nzyl)-8-phenyloxyacetate-1-propyl-xanthine), at human A2B receptors expressed in HEK-293 cell membranes [[Linden and Jacobson, 1998]]. In order to evaluate selectivity, selected derivatives were subjected to standard binding assays at A1, A2A, and A3 receptors. The initial screening utilized rat brain A1/A2A receptors (with radioligands [^3H]R-PIA and [^3H]CGS-21680), and selected compounds were examined at the recombinant human subtypes (Table 1), using [^3H]CPX ([^3H]8-cyclopentyl-1,3-dipropylxanthine) and ^125I-ZM 241385, ^125I-4-(2-[7-amino-2-[2-furyl][1,2,4]triazolo[2,3-a][1,3,5]triazin-5-yl-amino]ethyl)phenol) [[Palmer et al., 1996]].
# human A2A receptors = target: T2, human A2A receptors (Homo sapiens, UniProt P29274); experiment: Binding at recombinant human A2A receptors expressed in HEK-293 cells vs [125I]ZM241385; settings: recombinant human A2A in HEK-293 cells, read-out: Ki A2A (h) (converted)
# T2 construct: expressed in transfected cells; host or cells: HEK-293
# T2 sequence (P29274 whole entry): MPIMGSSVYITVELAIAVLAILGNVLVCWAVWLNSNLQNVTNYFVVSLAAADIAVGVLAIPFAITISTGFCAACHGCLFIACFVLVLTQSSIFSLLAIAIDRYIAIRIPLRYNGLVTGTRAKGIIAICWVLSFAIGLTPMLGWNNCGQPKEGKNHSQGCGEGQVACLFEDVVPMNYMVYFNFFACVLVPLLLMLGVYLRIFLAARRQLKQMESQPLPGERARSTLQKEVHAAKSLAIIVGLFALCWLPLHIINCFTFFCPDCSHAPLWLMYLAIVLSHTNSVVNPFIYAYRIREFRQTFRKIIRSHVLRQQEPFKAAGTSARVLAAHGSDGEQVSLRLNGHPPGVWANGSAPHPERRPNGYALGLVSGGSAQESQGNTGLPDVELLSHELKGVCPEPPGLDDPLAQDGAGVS
# Protocol: All nonradioactive compounds were initially dissolved in DMSO and diluted with buffer to the final concentration, where the amount of DMSO never exceeded 2%. Incubations were terminated by rapid filtration over Whatman GF/B filters using a Brandell cell harvester. The tubes were rinsed three times with 3 mL buffer each.
# At least six different concentrations of competitor, spanning 3 orders of magnitude adjusted appropriately for the IC50 value of each compound, were used. IC50 values, calculated with the nonlinear regression method implemented in Graph-Pad Prism (San Diego, CA) were converted to apparent Ki values as described by [Linden [1982]]. Hill coefficients of the tested compounds were in the range of 0.8–1.1.
# as §1
SMILES,Ki (human A2B receptors) [nM],Ki (human A2A receptors) [nM]
"CCCn1c(=O)c2[nH]c(-c3ccc(OCC(=O)NNC(=O)CCC(=O)O)cc3)nc2n(CCC)c1=O [Compound 9, 8-[4-[(Carboxymethyl)oxy]phenyl]-1,3-di-(n-propyl)xanthine N-[(3-Carboxy)-n-propionyl]hydrazide]",97.8,795
"CCCn1c(=O)c2[nH]c(-c3ccc(OCC(=O)NN4C(=O)c5ccccc5C4=O)cc3)nc2n(CCC)c1=O [Compound 21, 8-[4-[(Carboxymethyl)oxy]phenyl]-1,3-di-(n-propyl)xanthine N,N-Phthaloylhydrazide]",46.4,359
"CCCn1c(=O)[nH]c(=O)c2[nH]c(-c3ccc(OCC(=O)NN4C(=O)C(C)=C(C)C4=O)cc3)nc21 [Compound 15, 8-[4-[(Carboxymethyl)oxy]phenyl]-1H-3-(n-propyl)xanthine N,N-[(1,2-Dimethyl)maleyl]hydrazide]",1900,5480
"CCCn1c(=O)c2[nH]c(-c3ccc(OCC(=O)NN4C(=O)C(C)=C(C)C4=O)cc3)nc2n(CCC)c1=O [Compound 14, 8-[4-[(Carboxymethyl)oxy]phenyl]-1,3-di-(n-propyl)xanthine N,N-[(1,2-Dimethyl)maleyl]hydrazide]",33.8,1970

# Second part, the compound after the results:
Ki (human A2B receptors) [nM],Ki (human A2A receptors) [nM],SMILES
34.5,342,CCCn1c(=O)c2[nH]c(-c3ccc(OCC(=O)OCC)cc3)nc2n(CCC)c1=O [Compound 4b]
33.8,186,"CCCn1c(=O)c2[nH]c(-c3ccc(OCC(=O)NNC(C)=O)cc3)nc2n(CCC)c1=O [Compound 4e, 8-[4-[(Carboxymethyl)oxy]phenyl]-1,3-di-(n-propyl)xanthine N-Acetylhydrazide]"
